Measurements taken from patent US10849875B2, “Cancer specific lipid targeted peptidomimetics” (University of Houston System, priority 2015, dated 2020).
“Also recorded” adds a separate entry of the source. Positions of bridges follow the written chain, without caps; N, C: chain ends. Non-standard residues stand in square brackets, D forms with d. Residues, ends and D or L forms follow the SMILES beside them. Chains are numbered I, II in the order given. Gly(N-piperonyl) = O=C(O)CNCc1ccc2c(c1)OCO2; N(4-MeOBn)Gly = COc1ccc(CNCC(=O)O)cc1; Nrpe = C[C@@H](NCC(=O)O)c1ccccc1; Nlys = NCCCCNCC(=O)O

Legend:
[1] = Lipid ELISA-like binding assay
Description: Structural features of PPS1and PS were compared to determine why PPS1 preferred PS over PC. PPS1 has three positive charged residues aligned together and a hydrophobic region with four consecutive aromatic rings (FIG. 9A). This can perfectly form both electrostatic and hydrophobic interactions with opposing negatively charged PS head groups and its hydrophobic tail regions.
One of the major questions arising at this point is how PPS1 or PPS1D1 specifically recognizes PS over PC, as both lipids have negatively charged phosphate head groups. To address this specificity concern, ELISA-like binding assay were expanded to include other membrane phospholipids such as phosphatidylethanolamine (PE), sphingomyelin (SM), phosphatidic acid (PA), phosphatidylinositol (PI) and phosphatidylglycerol (PG). […] This additional negative charge can be responsible for the interaction with the positively charged region of PPS1 or PPS1D1, while the hydrophobic regions of PPS1 or PPS1D1 may interact with hydrophobic tail groups of the lipids through van der Waals forces. […] The membrane was treated with biotin labeled PPS1D1 and binding was detected by immunoblotting with streptavidin-HRP. […] It has been reported that PS can form a bilayer lamellar and reverse hexagonal phase. PS is mainly in a lamellar phase after hydration at physiological pH. By validating our binding through an ELISA-like assay and liposomes, PPS1D1 has an equal opportunity to bind to each phase of PS.
Lipids (Avanti Polar Lipids) were dissolved in hexane at 10 μg/ml and coated on to Immulon 1B “U” bottom microtiter plates (ThermoFisher, MA). Hexane was evaporated at room temp (in the hood) and the plates were blocked with 200 μl of 1% BSA in PBS for 1 hour. Plates were washed with 3× PBS. […] Plates were washed with 5× PBS and binding was detected with streptavidin-HRP (1:2000 in blocking buffer) followed by 100 μl OPD (Sigma-Aldrich). The reaction was stopped with 100 μl 0.18M H2SO4 and absorbance was read at 490 nm using the spectrophotometer (Spectramax i3, Molecular Devices, CA).

[2] = test system: HBEC30KT cells; test: MTS cell viability assay; assay type: cell-based, human
Method: After confirming the binding and specificity of the PPS1 on HCC4017 lung cancer cells, whether this compound has any biological effects on HCC4017 lung cancer cells was assayed. The gold standard cell viability (MTS) assay was used. HCC4017 cells and HBEC30kt and HBEC3kt cells were grown in 96 well plates on day 1, then treated by serial dilution of PPS1 and control compound C462 on day 2, and the viable cell count was measured using MTS reagent on day 3. […] On one of the repetitive experiments of this assay, Cystinylated-PPS1 compound was included (FIG. 6A). This was the intermediate compound used to attach the FITC-malemide for binding assays described previously. […] The only difference between this Cystinylated-PPS1 and the original PPS1 compound was just a single cysteine amino acid at the C-terminal. […]
A homo-dimeric version of PPS1 was synthesized. […] The resulting dimeric version of the PPS1 compound, PPS1D1 (FIG. 6C), and the analogous dimeric versions of scrambled PC2, PC2D1 (FIG. 6E), and control compound C462, PC462D1 (FIG. 82), were then evaluated for activity. […] As described above, HCC4017 cells and HBEC30kt and HBEC3kt cells were grown in 96 well plates on day 1, treated serial dilutions of PPS1, PPS1D1, C462 and C462D1 on day 2, and viable cell count was measured using MTS reagent on day 3. […]

[3] = test system: HCC4017 xenografts; test: Tumor burden effect on HCC4017 xenografts; assay type: in vivo, mice; details: initial data, heterogeneous tumors
Method: The actual tumor burden effects of PPS1D1 on HCC4017 xenografts were studied. The study was planned with 4 groups. […] It took a long time to grow and created a very heterogeneous xenograft population. PPS1D1 treatment was performed, but due to the high heterogeneity of the tumors, most of the mice in every group had to be sacrificed as they reached the maximum allowed limits.

[4] = test system: H460 cells
Method: Before moving to animal studies with PPS1D1, comprehensive validation of cytotoxic effect of PPS1D1 on H460 was performed (Fig: 13). The PS expression levels of H460 using FITC-Annexin V staining detected by FACS was checked. […] A magnetic bead pull down, cell proliferation assay, and flow cytometry were performed on the H460 cell line. PPS1D1 coated magnetic beads were incubated with the H460 cell line for 30 minutes. The supernatant was removed by immobilizing beads on side of the tube with a magnet. The number of cells bound to beads were counted with a hemocytometer. […] Cell proliferation assays on a H460 cell line were performed by treating them with PPS1D1, PPS1, and the control compound, PC462D1. […] Binding and cytotoxicity of fluoresceinated PPS1D1 was examined using flow cytometry. Efficiency of PPS1D1 cytotoxicity on H460 cancer cells at different concentrations with 1 hour incubation with PPS1D1 was examined. Assays were performed to determine whether there were cells that were double positive for FITC (bound to PPS1D1) and PI, to evaluate cell viability. […]
Experimental procedure 10: MTS viability assay on H460 cells. […] On day 5, 20 μl of CellTiter 96® AQueous One Solution Cell Proliferation Assay (Promega, Wis.) was added to each well and absorbance was measured at 490 nm using a plate reader 2 hours after treatment.

Structure (SMILES): COc1ccc(CN(CC(=O)N(CCCCN)CC(=O)N[C@@H](CCCCN)C(=O)N[C@H](CCCCN)C(=O)N[C@@H](CCSC)C(=O)NCCCC[C@H](NC(=O)[C@H](CCSC)NC(=O)[C@@H](CCCCN)NC(=O)[C@H](CCCCN)NC(=O)CN(CCCCN)C(=O)CN(Cc2ccc(OC)cc2)C(=O)CN(C(=O)CN(Cc2ccc3c(c2)OCO3)C(=O)CN[C@H](C)c2ccccc2)[C@H](C)c2ccccc2)C(N)=O)C(=O)CN(C(=O)CN(Cc2ccc3c(c2)OCO3)C(=O)CN[C@H](C)c2ccccc2)[C@H](C)c2ccccc2)cc1 [PPS1D1] (I: H-[Nrpe][Gly(N-piperonyl)][Nrpe][N(4-MeOBn)Gly][Nlys]K[dK]MK-NH2 / II: H-[Nrpe][Gly(N-piperonyl)][Nrpe][N(4-MeOBn)Gly][Nlys]K[dK]M; amide I:9-II:C; N-terminus assumed)
- binding to PA [1]: displayed binding
- binding to PG [1]: displayed binding
- binding to PI [1]: displayed binding
- effect on normal HBEC30KT cells ([2]; 1 and 20 μM): no effect
- activity on normal HBEC30KT cells ([2]; serial dilutions): did not have any activity; also recorded: no cytotoxicity
- tumor growth [3]: capable of reducing the tumor growth
- effect on H460 cells ([4]; MTS / cell proliferation, increasing concentrations): very potent in inhibiting growth
- concentration at which most cytotoxicity was seen ([4]; cell proliferation assay, H460): ≥ 10 µM
